Experimental data as given in the NIST ThermoML archive (doi:10.1021/je8004112).

What was measured:
[1] = xn = mol fraction of the nth substance listed; settings: Ring tensiometer
[2] = Ring tensiometer

OC1CCCCC1 [cyclohexanol] + C1CCCCC1
surface tension liquid-gas [mN/m], [1]
Settings	x2 = 0	x2 = 0.005	x2 = 0.009	x2 = 0.013	x2 = 0.023	x2 = 0.031	x2 = 0.044	x2 = 0.07
293.15 K	33.15	31.44	30.93	30.73	30.42	30.26	30.12	29.62
298.15 K	32.74	31	30.54	30.32	29.99	29.8	29.62	29.15
303.15 K	32.35	30.55	30.17	29.88	29.57	29.38	29.16	28.65
308.15 K	31.91	30.12	29.77	29.49	29.15	28.93	28.65	28.18
313.15 K	31.58	29.73	29.4	29.06	28.76	28.48	28.26	27.75
318.15 K	31.13	29.26	29	28.67	28.34	28.07	27.78	27.27
323.15 K	30.78	28.88	28.63	28.3	27.91	27.66	27.35	26.82

OC1CCCCC1 [cyclohexanol] + CCCCCCCCC
surface tension liquid-gas [mN/m], [1]
Settings	x2 = 0	x2 = 0.003	x2 = 0.006	x2 = 0.008	x2 = 0.012	x2 = 0.022	x2 = 0.041	x2 = 0.06
293.15 K	33.15	32.91	32.7	32.65	32.24	31.79	30.67	29.88
298.15 K	32.74	32.51	32.3	32.22	31.85	31.44	30.3	29.48
303.15 K	32.35	32.11	31.84	31.78	31.49	31.09	29.91	29.11
308.15 K	31.91	31.72	31.44	31.35	31.09	30.72	29.52	28.72
313.15 K	31.58	31.36	31.08	30.94	30.75	30.38	29.17	28.37
318.15 K	31.13	30.99	30.69	30.52	30.41	29.99	28.8	27.98
323.15 K	30.78	30.54	30.3	30.07	30.02	29.62	28.41	27.56

CCCCCCC [heptane]
[2]
Settings	surface tension liquid-gas [mN/m]
293.15 K	20.05
298.15 K	19.54
303.15 K	19.1
308.15 K	18.58
313.15 K	18.08
318.15 K	17.6
323.15 K	17.06

CCCCCC [hexane]
[2]
Settings	surface tension liquid-gas [mN/m]
293.15 K	18.56
298.15 K	18.03
303.15 K	17.44
308.15 K	16.92
313.15 K	16.38

C1CCCCC1 [cyclohexane]
[2]
Settings	surface tension liquid-gas [mN/m]
293.15 K	25.06
298.15 K	24.45
303.15 K	23.87
308.15 K	23.21
313.15 K	22.71
318.15 K	22.05
323.15 K	21.45

C1CCCCC1 [cyclohexane] + OC1CCCCC1
[1], x1 = 1
Settings	surface tension liquid-gas [mN/m]
293.15 K	25.06
298.15 K	24.45
303.15 K	23.87
308.15 K	23.21
313.15 K	22.71
318.15 K	22.05
323.15 K	21.45

OC1CCCCC1 [cyclohexanol] + CCCCCC
surface tension liquid-gas [mN/m], [1]
Settings	x2 = 0	x2 = 0.007	x2 = 0.009	x2 = 0.012	x2 = 0.021	x2 = 0.03	x2 = 0.042	x2 = 0.075
293.15 K	33.15	31.87	31.64	31.5	31.11	30.5	30	28.85
298.15 K	32.74	31.5	31.31	31.08	30.71	30.07	29.59	28.42
303.15 K	32.35	31.13	30.96	30.7	30.33	29.67	29.15	27.96
308.15 K	31.91	30.77	30.64	30.26	29.96	29.26	28.74	27.5
313.15 K	31.58	30.42	30.31	29.88	29.55	28.85	28.33	27.06

CCCCCCC [heptane] + OC1CCCCC1
[1], x1 = 1
Settings	surface tension liquid-gas [mN/m]
293.15 K	20.05
298.15 K	19.54
303.15 K	19.1
308.15 K	18.58
313.15 K	18.08
318.15 K	17.6
323.15 K	17.06
